In patent publication US7923425B2, “Low-foaming, acidic low-temperature cleaner and process for cleaning surfaces” (Henkel AG & Co. KGaA, priority 2006, dated 2011):
Where “and” joins values, the source holds several entries; their conditions need not be identical. Identical values can stand only once.

Columns and labels:
[1] = Cleaning test on soiled aluminum panels, corn oil soil; conditions: 0.05% alone in water, no matrix, 120° F., 90 seconds
Procedure: (§1) A series of commercially available cleaners as well as certain surfactants and related compounds in water, alone, without a builder matrix were tested for cleaning performance. The cleaning effectiveness of each cleaner composition was tested follows: • 1. Soiled aluminum panels, 1″×4″, were used as the test specimens. […] Mineral oil and corn oil, each modified by the addition of 10% graphite, were used as the soils for each screening. Soil patches on the aluminum were deposited immediately before testing.
(§2) The test specimens were cleaned by low-impingement, continuously circulated aqueous working baths to determine chemical cleaning strength. The test also screened for foaminess. The continuous circulation promoted foam formation. Cleaning effectiveness was evaluated gravimetrically and the percentage of oily contaminant removed by the formulation was calculated by comparing soil weights before and after cleaning. This technique is a common procedure in analytic chemistry and will be familiar to those of skill in the art. The results of these experiments are summarized in Tables 1 and 3 as percent reduction of soil.

[2] = Cleaning test on soiled aluminum panels, mineral oil soil; conditions: 0.05% alone in water, no matrix, 120° F., 90 seconds
Procedure: as §1, §2

Compound	% reduction of soil, Corn Oil, single panel [1]	% reduction of soil, Min Oil, single panel [2]
OCCOCCOCc1ccccc1 [Surfactant #7, benzyl alcohol ethoxylate, C6H5CH2—O—(CH2—CH2—O)n—H, n=2]	92.2% and 92.0% and 91.6%	98.9% and 100.0% (2×)
tri(propylene glycol) propyl ether	90.0% and 88.9% and 95.0%	93.9% and 100.0% (2×)
